From patent US7456165B2, “HCV NS5B inhibitors” (Bristol-Myers Squibb Company, priority 2006, dated 2008)

Experiments:
HCV NS5B = molecular target: T1, HCV NS5B (Hepatitis C virus genotype 1b, UniProt Q9WMX2); test: HCV NS5B RdRp enzyme assay (preincubation protocol); type: biochemical; conditions: HCV NS5B RdRp genotype 1b
T1 construct: The protein was expressed with an 18 amino acid C-terminal truncation to enhance the solubility; made in house; host or cells: E. coli BL21(DE3)
Protocol: HCV NS5B RdRp cloning, expression, and purification. The cDNA encoding the NS5B protein of HCV, genotype 1b, was cloned into the pET21a expression vector. The protein was expressed with an 18 amino acid C-terminal truncation to enhance the solubility. The E. coli competent cell line BL21(DE3) was used for expression of the protein. Cultures were grown at 37° C. for ˜4 hours until the cultures reached an optical density of 2.0 at 600 nm. The cultures were cooled to 20° C. and induced with 1 mM IPTG. Fresh ampicillin was added to a final concentration of 50 μg/ml and the cells were grown overnight at 20° C.
Cell pellets (3 L) were lysed for purification to yield 15-24 mgs of purified NS5B. The lysis buffer consisted of 20 mM Tris-HCl, pH 7.4, 500 mM NaCl, 0.5% triton X-100, 1 mM DTT, 1 mM EDTA, 20% glycerol, 0.5 mg/ml lysozyme, 10 mM MgCl2, 15 ug/ml deoxyribonuclease I, and Complete TM protease inhibitor tablets (Roche). After addition of the lysis buffer, frozen cell pellets were resuspended using a tissue homogenizer. To reduce the viscosity of the sample, aliquots of the lysate were sonicated on ice using a microtip attached to a Branson sonicator. The sonicated lysate was centrifuged at 100,000×g for 1 hr at 4° C. and filtered through a 0.2 μm filter unit (Corning).
The protein was purified using three sequential chromatography steps: Heparin sepharose CL-6B, polyU sepharose 4B, and Hitrap SP sepharose (Pharmacia). The chromatography buffers were identical to the lysis buffer but contained no lysozyme, deoxyribonuclease I, MgCl2 or protease inhibitor and the NaCl concentration of the buffer was adjusted according to the requirements for charging the protein onto the column. Each column was eluted with a NaCl gradient which varied in length from 5-50 column volumes depending on the column type. After the final chromatography step, the resulting purity of the enzyme is >90% based on SDS-PAGE analysis. The enzyme was aliquoted and stored at −80° C.
Standard HCV NS5B RdRp enzyme assay. HCV RdRp genotype 1b assays were run in a final volume of 60 μl in 96 well plates (Costar 3912 H. The assay buffer is composed of 20 mM Hepes, pH 7.5, 2.5 mM KCl, 2.5 mM MgCl2, 1 mM DTT, 1.6 U RNAse inhibitor (Promega N2515), 0.1 mg/ml BSA (Promega R3961), and 2% glycerol. All compounds were serially diluted (3-fold) in DMSO and diluted further in water such that the final concentration of DMSO in the assay was 2%. HCV RdRp genotype 1b enzyme was used at a final concentration of 28 nM. A polyA template was used at 6 nM, and a biotinylated oligo-dT12 primer was used at 180 nM final concentration. Template was obtained commercially (Amersham 27-4110). Biotinylated primer was prepared by Sigma Genosys. 3H-UTP was used at 0.6 μCi (0.29 μM total UTP). Reactions were initiated by the addition of enzyme, incubated at 30° C. for 60 min, and stopped by adding 25 μl of 50 mM EDTA containing SPA beads (4 μg/μl, Amersham RPNQ 0007 H. Plates were read on a Packard Top Count NXT after >1 hr incubation at room temperature.
Modified HCV NS5B RdRp enzyme assay. A modified enzyme assay was performed essentially as described for the standard enzyme assay except for the following: The biotinylated oligo dT12 primer was precaptured on streptavidin-coated SPA beads by mixing primer and beads in assay buffer and incubating at room temperature for one hour. Unbound primer was removed after centrifugation. The primer-bound beads were resuspended in 20 mM Hepes buffer, pH 7.5 and used in the assay at final concentrations of 20 nM primer and 0.67 μg/μl beads. Order of addition in the assay: enzyme (14 nM) was added to diluted compound followed by the addition of a mixture of template (0.2 nM), 3H-UTP (0.6 μCi, 0.29 μM), and primer-bound beads, to initiate the reaction; concentrations given are final. Reactions were allowed to proceed for 4 hours at 30° C.
IC50 values for compounds were determined using seven different [I]. […]

HCV replicon cells = test: HCV replicon FRET assay; type: cell-based; conditions: Hepatitis C virus
Text: FRET Assay Preparation. To perform the HCV FRET screening assay, 96-well cell culture plates were used. The FRET peptide (Anaspec, Inc.) (Taliani et al., Anal Biochem. 1996, 240, 60-67) contains a fluorescence donor, EDANS, near one end of the peptide and an acceptor, DABCYL, near the other end. The fluorescence of the peptide is quenched by […] resonance energy transfer (RET) between the donor and the acceptor, but as the NS3 protease cleaves the peptide the products are released from RET quenching and the fluorescence of the donor becomes apparent. The assay reagent was made as follows: 5× cell Luciferase cell culture lysis reagent from Promega (#E153A) diluted to 1× with dH2O, NaCl added to 150 mM final, the FRET peptide diluted to 20 μM final from a 2 mM stock.
To prepare plates, HCV replicon cells, with or without a Renilla luciferase reporter gene, were trypsinized and placed into each well of a 96-well plate with titrated test compounds added in columns 3 through 12; columns 1 and 2 contained a control compound (HCV protease inhibitor), and the bottom row contained cells without compound. The plates were then placed in a CO2 incubator at 37° C.
Assays. Subsequent to addition of the test compounds described above (FRET Assay Preparation), at various times the plate was removed and Alamar blue solution (Trek Diagnostics, #00-100) was added per well as a measure of cellular toxicity. After reading in a Cytoflour 4000 instrument (PE Biosystems), plates were rinsed with PBS and then used for FRET assay by the addition of 30 ul of the FRET peptide assay reagent described above (FRET Assay Preparation) per well. The plate was then placed into the Cytoflour 4000 instrument which had been set to 340 excite/490 emission, automatic mode for 20 cycles and the plate read in a kinetic mode. Typically, the signal to noise using an endpoint analysis after the reads was at least three-fold. Alternatively, after Alamar blue reading, plates were rinsed with PBS, 50 ul of DMEM (high glucose) without phenol red was added and plates were then used for luciferase assay using the Promega Dual-Glo Luciferase Assay System.
Compound analysis was determined by quantification of the relative HCV replicon inhibition and the relative cytotoxicity values. To calculate cytoxicity values, the average Alamar Blue fluorescence signals from the control wells were set as 100% non-toxic. The individual signals in each of the compound test wells were then divided by the average control signal and multiplied by 100% to determine […]. To calculate the HCV replicon inhibition values, an average background value was obtained from the two wells containing the highest amount of HCV protease inhibitor at the end of the assay period. These numbers were similar to those obtained from naïve Huh-7 cells.
The background numbers were then subtracted from the average signal obtained from the control wells and this number was used as 100% activity. The individual signals in each of the compound test wells were then divided by the averaged control values after background subtraction and multiplied by 100% to determine percent activity. EC50 values for a protease inhibitor titration were calculated as the concentration which caused a 50% reduction in FRET or luciferase activity. The two numbers generated for the compound plate, percent cytoxicity and percent activity were used to determine compounds of interest for further analysis.

T1 sequence (Q9WMX2 2420-2992): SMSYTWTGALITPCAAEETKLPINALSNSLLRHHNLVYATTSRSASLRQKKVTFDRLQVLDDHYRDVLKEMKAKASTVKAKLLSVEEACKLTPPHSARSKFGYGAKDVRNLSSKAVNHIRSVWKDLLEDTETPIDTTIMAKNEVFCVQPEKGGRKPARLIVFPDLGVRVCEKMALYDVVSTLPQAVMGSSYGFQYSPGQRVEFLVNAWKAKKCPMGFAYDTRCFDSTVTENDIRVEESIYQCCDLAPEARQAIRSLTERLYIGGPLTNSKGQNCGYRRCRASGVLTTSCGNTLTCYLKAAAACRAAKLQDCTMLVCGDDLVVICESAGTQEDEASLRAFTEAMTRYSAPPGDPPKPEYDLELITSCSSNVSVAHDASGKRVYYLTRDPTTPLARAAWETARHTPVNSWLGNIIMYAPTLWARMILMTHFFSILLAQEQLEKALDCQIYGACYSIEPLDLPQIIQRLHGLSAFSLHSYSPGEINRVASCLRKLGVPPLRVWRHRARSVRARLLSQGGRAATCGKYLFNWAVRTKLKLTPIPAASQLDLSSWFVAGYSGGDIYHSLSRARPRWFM

SMILES	IC50 (HCV NS5B) [nM]	EC50 (HCV replicon cells) [nM]
O=C(O)c1ccc2c(C3CCCCC3)c3n(c2c1)CC(c1nnnn1CC1CCCO1)=Cc1ccccc1-3 (stereo not shown) [Example 10, 13-cyclohexyl-6-[1-[(tetrahydro-2-furanyl)methyl]-1H-tetrazol-5-yl]-7H-indolo[2,1-a][2]benzazepine-10-carboxylic acid]	1 to 500	> 500
O=C(O)c1ccc2c(C3CCCCC3)c3n(c2c1)CC(c1nnn(CC2CCOCC2)n1)=Cc1ccccc1-3 [Example 11, 13-cyclohexyl-6-[2-[(tetrahydro-2H-pyran-4-yl)methyl]-2H-tetrazol-5-yl]-7H-indolo[2,1a][2]benzazepine-10-carboxylic acid]	1 to 500	> 500
O=C(O)c1ccc2c(C3CCCCC3)c3n(c2c1)C=C(c1nnn(CC2CCOCC2)n1)Cc1ccccc1-3 [Example 12, 13-cyclohexyl-6-[2-[(tetrahydro-2H-pyran-4-yl)methyl]-2H-tetrazol-5-yl]-5H-indolo[2,1-a][2]benzazepine-10-carboxylic acid]	> 500	> 500
O=C(O)c1ccc2c(C3CCCCC3)c3n(c2c1)CC(c1nnnn1CC1CCOCC1)=Cc1ccccc1-3 [Example 13, 13-cyclohexyl-6-[1-[(tetrahydro-2H-pyran-4-yl)methyl]-1H-tetrazol-5-yl]-7H-indolo[2,1-a][2]benzazepine-10-carboxylic acid]	1 to 500	> 500
O=C(O)c1ccc2c(C3CCCCC3)c3n(c2c1)C=C(c1nnnn1CC1CCOCC1)Cc1ccccc1-3 [Example 14, 13-cyclohexyl6-[1-[(tetrahydro-2H-pyran-4-yl)methyl]-1H-tetrazol-5-yl]-5H-indolo[2,1-a][2]benzazepine-10-carboxylic acid]	> 500	> 500
CN(C)S(=O)(=O)NC(=O)c1ccc2c(C3CCCCC3)c3n(c2c1)CC(c1nnn(CC2CCOCC2)n1)=Cc1ccccc1-3 [Example 15, 13-cyclohexyl-N-[(dimethylamino)sulfonyl]-6-[2-[(tetrahydro-2H-pyran-4-yl)methyl]-2H-tetrazol-5-yl]-7H-indolo[2,1-a][2]benzazepine-10-carboxamide]	1 to 500	> 500
COc1ccc2c(c1)C=C(c1nnn(CC3CCOCC3)n1)Cn1c-2c(C2CCCCC2)c2ccc(C(=O)O)cc21 [Example 16, 13-cyclohexyl-3-methoxy-6-[2-[(tetrahydro-2H-pyran-4-yl)methyl]-2H-tetrazol-5-yl]-7H-indolo[2,1-a][2]benzazepine-10-carboxylic acid]	1 to 500	> 500
COc1ccc2c(c1)C=C(c1nnn(CC3CCOCC3)n1)Cn1c-2c(C2CCCCC2)c2ccc(C(=O)NS(=O)(=O)N(C)C)cc21 [Example 17, 13-cyclohexyl-N-[(dimethylamino)sulfonyl]-3-methoxy-6-[2-[(tetrahydro-2H-pyran-4-yl)methyl]-2H-tetrazol-5-yl]-7H-indolo[2,1-a][2]benzazepine-10-carboxamide]	1 to 500	1 to 500
O=C(O)c1ccc2c(C3CCCCC3)c3n(c2c1)CC(c1n[nH]c(=O)o1)=Cc1ccccc1-3 [Example 19, 13-cyclohexyl-6-(4,5-dihydro-5-oxo-1,3,4-oxadiazol-2-yl)-7H-indolo[2,1-a][2]benzazepine-10-carboxylic acid]	1 to 500	> 500
O=C(O)c1ccc2c(C3CCCCC3)c3n(c2c1)CC(c1nn(CC2CCOCC2)c(=O)o1)=Cc1ccccc1-3 [Example 21, 13-cyclohexyl-6-[4,5-dihydro-5-oxo-4-[(tetrahydro-2H-pyran-4-yl)methyl]-1,3,4-oxadiazol-2-yl]-7H-indolo[2,1-a][2]benzazepine-10-carboxylic acid]	1 to 500	> 500
O=C(O)c1ccc2c(C3CCCCC3)c3n(c2c1)CC(c1n[nH]c(CC2CCOCC2)n1)=Cc1ccccc1-3 [Example 22, 13-cyclohexyl-6-[3-[(tetrahydro-2H-pyran-4-yl)methyl]-1H-1,2,4-triazol-5-yl]-7H-indolo[2,1-a][2]benzazepine-10-carboxylic acid]	1 to 500	> 500
COC(=O)c1ccc2c(C3CCCCC3)c3n(c2c1)CC(c1nc(C)no1)=Cc1ccccc1-3 [Example 23, 13-cyclohexyl-6-(3-methyl-1,2,4-oxadiazol-5-yl)-7H-indolo[2,1-a][2]benzazepine-10-carboxylic acid, methyl ester]	> 500	> 500
Cc1noc(C2=Cc3ccccc3-c3c(C4CCCCC4)c4ccc(C(=O)O)cc4n3C2)n1 [Example 24, 13-cyclohexyl-6-(3-methyl-1,2,4-oxadiazol-5-yl)-7H-indolo[2,1-a][2]benzazepine-10-carboxylic acid]	1 to 500	> 500
Cc1noc(C2=Cc3ccccc3-c3c(C4CCCCC4)c4ccc(C(=O)NS(=O)(=O)N(C)C)cc4n3C2)n1 [Example 25, 13-cyclohexyl-N-[(dimethylamino)sulfonyl]-6-(3-methyl-1,2,4-oxadiazol-5-yl)-7H-indolo[2,1-a][2]benzazepine-10-carboxamide]	1 to 500	1 to 500
